According to US20050208031A1, “Inhibition of calcium-independent phospholipases A2beta or A2gamma inhibit hormone-induced differentiation of 3T3-L1 preadipocytes” (priority 2003, published 2005):

How the values were obtained:
iPLA2 = experiment: Phospholipase A2 (iPLA2) activity assay in day 8 3T3-L1 cell homogenates with radiolabelled POPC; type: biochemical; details: 10 μM BEL, 3 min preincubation, day 8 cell homogenate, FIG. 3B
Protocol: FIG. 3. Activities of PLA2 in 3T3-L1 cells during differentiation and their inhibition by BELs. 3T3-L1 cells were cultured and induced to differentiation as described in “Test Procedures.” At indicated differentiation stages, cell homogenates were prepared as described in “Test Procedures.” Phospholipase A2 activity was assessed by incubating 3T3-L1 cell protein (100-200 μg) with radiolabelled 1-palmitoyl-2-[1-^14C]-oleoyl-sn-glycerol-3-phosphocholine (POPC) (50 mCi/mmol, 5 μM final concentration, introduced by ethanol injection (2 μL)) in assay buffer (final conditions: 100 mM Tris-HCl, 4 mM EGTA, pH=7.2) at 37° C. for 30 min in a final volume of 200 μL. Reactions were quenched by addition of butanol (100 μL). 30 microliters of the organic phase was spotted on a Whatman silica plate which was developed with a nonpolar acidic mobile phase (100 mL of 70/30/1 petroleum ether/ethyl ether/acetic acid). Spots corresponding to fatty acids were scrapped into scintillation vials and radioactivity was quantified by scintillation spectrometry as described previously. A, iPLA2 activities of 3T3-L1 cells during differentiation. B, iPLA2 activities of homogenates of day 8 3T3-L1 cells after incubation at room temperature for 3 minutes in the absence or presence of 10 μM of (R)-BEL, (S)-BEL or racemic BEL.
On the day of the test, the media of 3T3-L1 cells at different stages of differentiation were removed. The cells were washed briefly with PBS and detached by incubation in trypsin-EDTA (0.25% w/v) at 37° C. for […]. The cells were washed again with 5 volumes of CMRL-1066, transferred to a 50 mL Falcon centrifuge tube and centrifuged for 5 min at 1700 rpm at 4° C. […] Briefly, phospholipase A2 activity was assessed by incubating 3T3-L1 cell protein (100-200 μg) with radiolabelled phosphatidylcholine, L-α-palmitoyl-2-oleoyl [oleoyl-1-^14C] […] Spots corresponding to fatty acids were scrapped into scintillation vials and radioactivity was quantified by scintillation spectrometry as described previously^(32). […]

3T3-L1 cells = experiment: TAG accumulation during hormone-induced differentiation of 3T3-L1 cells (ESI/MS); type: cell-based; details: 5, 10 μM BEL for 4 days, day 8, ESI/MS, FIG. 6
Protocol: FIG. 5. Effects of siRNAs directed against iPLA2β or iPLA2γ on TAG accumulation during 3T3-L1 cell differentiation. 3T3-L1 cells were cultured and transfected with 20 nM negative control siRNA, siRNA directed against iPLA2β, or siRNA directed against iPLA2γ prior to induction to differentiation as described in “Test Procedures.” 3T3-L1 cells were grown to day 8 and the cell monolayer was washed with ice-cold PBS and scraped into 1 mL 50 mM LiCl. The lipids were extracted by the method of Bligh-Dyer^(33) in the presence of an internal standard (Tril7:0TAG, 200 nmol/mg protein). Mass spectral analysis of TAG was performed by ESI/MS as described in “Test Procedures.” ESI/MS spectra of TAG of day 8 3T3-L1 cells with pretreatment of negative control siRNA (A), siRNA directed against iPLA2β (B) or siRNA directed against iPLA2γ (C) were shown. The results of TAG quantification (D) represent means ±S.E.M. of at least three independent cultures.
FIG. 6. Effects of BELs on TAG accumulation during hormone-induced differentiation of 3T3-L1 cells. 3T3-L1 cells on two days post confluent were washed three times with DMEM, incubated at 37° C. for 20 min in DMEM with 0, 5, 10 μM racemic, R-, or S-BEL. The cells were induced to differentiate as described in “Test Procedures” in the presence of indicated concentrations of BELs for 4 days. […]

iPLA2γ = target: T1, iPLA2γ (Homo sapiens, UniProt Q9NP80); details: previously demonstrated; cited from earlier work
T1 sequence (Q9NP80 1-782): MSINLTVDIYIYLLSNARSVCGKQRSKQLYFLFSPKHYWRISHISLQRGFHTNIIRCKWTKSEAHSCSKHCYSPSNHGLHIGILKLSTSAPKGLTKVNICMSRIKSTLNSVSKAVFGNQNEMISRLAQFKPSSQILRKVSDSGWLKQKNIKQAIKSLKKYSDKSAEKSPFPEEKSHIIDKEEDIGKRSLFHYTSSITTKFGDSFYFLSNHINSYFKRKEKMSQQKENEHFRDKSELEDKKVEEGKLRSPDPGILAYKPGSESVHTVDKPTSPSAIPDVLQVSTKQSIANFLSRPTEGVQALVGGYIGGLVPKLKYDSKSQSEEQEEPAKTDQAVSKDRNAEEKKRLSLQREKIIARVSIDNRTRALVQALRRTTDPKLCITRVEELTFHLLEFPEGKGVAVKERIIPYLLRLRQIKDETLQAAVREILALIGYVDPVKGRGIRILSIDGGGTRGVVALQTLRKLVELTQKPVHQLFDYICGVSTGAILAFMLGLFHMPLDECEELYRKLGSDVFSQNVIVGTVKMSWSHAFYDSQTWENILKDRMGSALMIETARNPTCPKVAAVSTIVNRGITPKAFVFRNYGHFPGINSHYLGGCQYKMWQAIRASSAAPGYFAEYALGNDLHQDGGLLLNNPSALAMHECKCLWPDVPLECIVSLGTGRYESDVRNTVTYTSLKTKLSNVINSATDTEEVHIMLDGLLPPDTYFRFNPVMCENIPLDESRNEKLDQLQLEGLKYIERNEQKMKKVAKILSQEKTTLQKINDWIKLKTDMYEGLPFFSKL

iPLA2β = target: T2, iPLA2β (Homo sapiens, UniProt O60733); details: previously demonstrated; cited from earlier work
T2 sequence (O60733 1-806): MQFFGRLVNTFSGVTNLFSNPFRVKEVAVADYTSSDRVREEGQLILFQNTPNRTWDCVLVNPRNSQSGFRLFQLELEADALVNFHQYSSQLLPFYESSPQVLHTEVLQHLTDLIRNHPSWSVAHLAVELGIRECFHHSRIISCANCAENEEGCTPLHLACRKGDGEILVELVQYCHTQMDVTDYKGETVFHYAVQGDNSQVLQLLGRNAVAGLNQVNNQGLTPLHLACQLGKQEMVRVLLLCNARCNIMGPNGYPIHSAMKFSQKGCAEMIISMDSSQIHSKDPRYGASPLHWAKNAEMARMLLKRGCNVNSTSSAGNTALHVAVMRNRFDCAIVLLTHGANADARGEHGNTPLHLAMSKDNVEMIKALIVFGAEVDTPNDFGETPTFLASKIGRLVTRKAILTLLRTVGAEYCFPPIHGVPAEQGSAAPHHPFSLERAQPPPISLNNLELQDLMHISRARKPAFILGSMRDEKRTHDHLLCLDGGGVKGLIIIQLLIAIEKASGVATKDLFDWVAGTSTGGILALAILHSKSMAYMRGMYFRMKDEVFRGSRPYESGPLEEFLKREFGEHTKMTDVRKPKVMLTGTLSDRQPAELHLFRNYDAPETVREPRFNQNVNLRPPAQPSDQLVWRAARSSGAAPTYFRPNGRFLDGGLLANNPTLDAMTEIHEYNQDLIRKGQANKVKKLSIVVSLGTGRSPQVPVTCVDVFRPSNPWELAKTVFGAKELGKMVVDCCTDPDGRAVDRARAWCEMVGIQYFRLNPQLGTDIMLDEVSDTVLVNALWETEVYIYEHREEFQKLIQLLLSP

SMILES | inhibition of measured iPLA2 activity in 3T3-L1 adipocyte homogenate (iPLA2) | adipocyte differentiation (TAG accumulation) with BEL (3T3-L1 cells) | selectivity for iPLA2γ (iPLA2γ) | selectivity for iPLA2β in comparison to iPLA2γ (iPLA2β)
O=C1O/C(=C/Br)CCC1c1cccc2ccccc12 (racemic) [racemic BEL] | inhibited | – | – | –
O=C1O/C(=C/Br)CC[C@@H]1c1cccc2ccccc12 [(R)-BEL] | inhibited to similar levels | substantially decreased | approximately an order of magnitude | –
O=C1O/C(=C/Br)CC[C@H]1c1cccc2ccccc12 [(S)-BEL] | inhibited to similar levels | substantially decreased | – | approximately one order of magnitude
